Source: patent publication US20010005752A1, “Fluorescent dyes (AIDA) for solid phase and solution phase screening” (priority 1998, published 2001)

Assays:
Assay type in all cases: physicochemical
[1] = Steady-state fluorescence spectroscopy (excitation and emission spectra); settings: for Emission range in parenthesis / Emission λmax / Excitation range in parenthesis / Excitation λmax: acetonitrile/2% DMSO
Description: Steady-state fluorescence measurements are performed on a SLM 8000C spectro-fluorometer equipped with JD490 photomultipliers and a 450 W Xenon Arclamp (SLM Instruments, Urbana, Ill.).
[…] Spectral bandwidths are set to 1 and 4 nm for excitation and emission, respectively. Spectra are recorded in single photon counting mode. Changes in lamp intensity are corrected with a quantum counter in the reference channel, measured in slow mode. Gain is set to x 100 with a high voltage (HV) of 640 V. Integration time is 2 seconds. For excitation spectra measurements, the emission wavelength is set to 397 nm and the sample is excited from 200 to 400 nm. For recording emission spectra, the sample is excited at 342 nm and the emission is recorded from 350 to 540 nm. The data are averaged over two scans.

[2] = UV-Vis absorption spectroscopy; settings: for Absorption λmax / ε (at absorption λmax): acetonitrile/2% DMSO
Description: UV-Vis absorption spectroscopy is performed on a Cary 1E spectrophotometer. […]
[…] […] From each stock solution, 5 dilutions with concentrations of 2.5 μm, 10 μM, 17 μM, 25 μm and 35 μM are made. UV-spectra of each dilution are recorded from 200 to 400 nm, using a quarz cuvette with a pathlength of 1 cm. […] A linear fit is carried out for each series of measurements. The extinction coefficient ε at 337 nm is given by the slope of the linear regression.

[3] = Picosecond time-resolved fluorescence spectroscopy (fluorescence lifetime); settings: 25 μM in THF, emission 400 nm
Description: Picosecond time-resolved fluorescence measurements are recorded according to the single photon counting technique [Lakowicz, 1983 p 52-93, 112-153, 156-185]. An Ar^+-pumped Ti:Sapphire laser (model MIRA 900, Coherent, Santa Clara, USA) provided under mode-locked conditions ultrashort pulses (FWHM=150 fs) with a frequency of 75 MHz. To reduce the repetition rate to 4.7 MHz, a pulse picker (model 9200, Coherent, Santa Clara, USA) is inserted into the beam. […] Fluorescence photons are collected in a Spex 1681 single grating monochromator (Spex, Edison, USA) and detected with the Hamamatsu R3809U microchannel plate (Hamamatsu, Shimokanzo, Japan). […] The voltage values which correspond to the time passed between excitation and emission of a fluorescence photon in a single experiment are stored in the Spectrum Master 921 (Ortec, Oak Ridge, USA) which is connected to the multichannel emulation program Maestro (Ortec, Oak Ridge, USA). […]
where A represents the background noise of the experiment, bi represent the pre-exponential terms of the according fluorescence lifetimes τi, and δt is an optional temporal shift term to compensate for shifts of the instrument response. […]
The time resolved decay of 4e is determined at a concentration of 25 μM in THF. Excitation is from 350 nm 380 nm, fluorescence emission is detected at 400 nm with slit widths set to 0.5 nm. […]

[4] = Quantum yield determination with chininsulfate as standard; settings: 25 μM in THF
Description: The quantum yield of 4e is determined using chininsulfate as a standard [Melhuish, 1961].
The point of intersection between the UV spectra of 4e and chininsulfate (CS) is determined by measurements of a solution of the two substances on a Cary 1E spectrophotometer. Concentrations were 25 μM in THF for 4e and 50 mM in 1N H2SO4 for CS. Spectra are recorded from 260 nm to 380 nm using a quartz cuvette with an optical pathlength of 10 mm, and blank corrected by subtracting the solvent absorption. The point of intersection of the two resulting UV spectra is determined to be at 348.3 nm, corresponding to 352.8 nm on the SLM-8000 C fluorometer due to monochromator shifts. The fluorescence emission spectra of 4e and CS are recorded using the same solutions as for the UV-measurements in single photon counting mode. Lamp intensity changes are corrected with a quantum counter in the reference channel, measured in slow mode. Gain is set at x 100, high voltage applied was 830 V. Integration time was 0.5 seconds.
Spectral bandwidths are set at 1 nm for excitation, 2 nm and 4 nm for emission.
For the recording of the emission spectra, excitation is set to 352.8 and emission is monitored from 360 to 550 nm for IAE and 360 to 650 nm for CS.

[5] = Calculation of R0 (Förster distance) between 4e and NATA; settings: 4e acceptor, NATA donor, THF
Description: The emission spectrum of NATA is measured at a concentration of 15 μM in THF, using a 750 μl quartz cuvette with an optical pathlength of 10 mm. Measuring mode is single photon counting. Changes in lamp intensity are corrected using a quantum counter in the reference channel. The gain is set at x 100, the high voltage applied was 640 V and the integration time is 2 seconds. The fluorescence emission is corrected for photometric accuracy of the system by multiplication with correction factors obtained by standard lamp calibration. Slit widths are set at 1 nm and 4 nm for excitation and emission, respectively. […] R0 is calculated using the formula R0=(9.97×10^3)(Jκ^2η^-4 θNATA)^1/6 Å where κ^2 is an orientation factor of the relative orientation in space of the transition dipoles of the donor and acceptor chromophores. […] J is the spectral overlap integral which can be approximated from […](λ)λ^4Δλ (2) where FNATA is the corrected fluorescence emission of the donor, the sum normalized to unity, ε4e is the extinction coefficient of the acceptor at wavelength λ, and DS is the incremental detection range.

fluorescence emission (relative to 1,3-diaryl-1H-indazoles) [1] | Emission range in parenthesis [1] | Emission λmax [1] | Excitation range in parenthesis [1] | Excitation λmax [1] | Absorption λmax [2] | ε (at absorption λmax) [2] | fluorescence lifetime (mono-exponential decay) [3] | relative amplitude of lifetime component [3] | quantum yield [4] | maximal emission intensity (wavelength) ([1]; 1 μM in THF, excitation at 342 nm) | Stoke shift ([1]; THF) | absorption maximum ([2]; THF) | absorption coefficient ε at 337 nm ([2]; THF, 337 nm) | R0 (Förster distance) of the dye pair with NATA [5] | Compound | photophysical and photochemical stability [1]
dramatically reduced |  |  |  |  |  |  |  |  |  |  |  |  |  |  | O=C(O)c1ccc(-n2nc(-c3ccccc3)c3ccc4ccccc4c32)cc1 [4-(3-phenyl-benzo[g]indazol-1-yl)-benzoic acid, reference compound] | 
 | 360-450 nm | 396 nm | 300-340 nm | 328 nm | 328 nm | 22569 M⁻¹ cm⁻¹ |  |  |  |  |  |  |  |  | O=C(O)c1ccc(-n2nc(-c3ccccc3)c3ccccc32)cc1 [4a] | 
 | 360-500 nm | 396 nm | 300-360 nm | 335 nm | 334 nm | 29152 M⁻¹ cm⁻¹ |  |  |  |  |  |  |  |  | O=C(O)c1ccc(-c2nn(-c3ccc(C(=O)O)cc3)c3ccccc23)cc1 [4b, 1,3-Bis-(4-carboxyphenyl)-1H-indazole] | 
 | 470-670 nm | 554 nm | 320-400 nm | 368 nm | 354 nm | 25482 M⁻¹ cm⁻¹ |  |  |  |  |  |  |  |  | O=C(O)c1ccc(-n2nc(-c3ccc([N+](=O)[O-])cc3)c3ccccc32)cc1 [4f] | 
 | 470-670 nm | 551 nm | 320-420 nm | 374 nm | 361 nm | 31261 M⁻¹ cm⁻¹ |  |  |  |  |  |  |  |  | O=C(O)c1ccc(-c2nn(-c3ccc([N+](=O)[O-])cc3)c3ccccc23)cc1 [4i] | 

Second part, the compound before the results:

Compound | fluorescence emission (relative to 1,3-diaryl-1H-indazoles) [1] | Emission range in parenthesis [1] | Emission λmax [1] | Excitation range in parenthesis [1] | Excitation λmax [1] | Absorption λmax [2] | ε (at absorption λmax) [2] | fluorescence lifetime (mono-exponential decay) [3] | relative amplitude of lifetime component [3] | quantum yield [4] | maximal emission intensity (wavelength) ([1]; 1 μM in THF, excitation at 342 nm) | Stoke shift ([1]; THF) | absorption maximum ([2]; THF) | absorption coefficient ε at 337 nm ([2]; THF, 337 nm) | R0 (Förster distance) of the dye pair with NATA [5] | photophysical and photochemical stability [1]
NC(=O)c1ccc(-c2nn(-c3ccc(C(=O)O)cc3)c3ccccc23)cc1 [4c, 4-[3-(4-carbamoyl-phenyl)-1H-indazol-1-yl]-benzoic acid] |  | 360-500 nm | 393 nm | 300-360 nm | 334 nm | 332 nm | 30665 M⁻¹ cm⁻¹ |  |  |  |  |  |  |  |  | 
COC(=O)c1ccc(-c2nn(-c3ccc(C(=O)O)cc3)c3ccccc23)cc1 [4d] |  | 360-500 nm | 396 nm | 300-360 nm | 336 nm | 334 nm | 33114 M⁻¹ cm⁻¹ |  |  |  |  |  |  |  |  | 
C=CCOC(=O)c1ccc(-c2nn(-c3ccc(C(=O)O)cc3)c3ccccc23)cc1 [4e, 4-[3-(4-allyloxycarbonylphenyl)-1H-indazol-1-yl]-benzoic acid] |  | 360-480 nm | 398 nm | 310-360 nm | 337 nm | 335 nm | 34134 M⁻¹ cm⁻¹ | 1.055±0.117 nsec | 99.73% | 0.591 | 403 nm | about 60 nm | 342 nm | 29926 M⁻¹ cm⁻¹ | 25.2 - 26.3 Å | photophysically and photochemically stable
O=C(O)c1ccc(-n2nc(-c3ccc(Cl)cc3)c3ccc(Cl)cc32)cc1 [4g] |  | 350-450 nm | 364 nm | 310-350 nm | 328 nm | 328 nm | 29157 M⁻¹ cm⁻¹ |  |  |  |  |  |  |  |  | 
COc1ccc(-c2nn(-c3ccc(C(=O)O)cc3)c3cc(OC)ccc23)cc1 [4h] |  | 370-600 nm | 439 nm | 300-350 nm | 330 nm | 327 nm | 27650 M⁻¹ cm⁻¹ |  |  |  |  |  |  |  |  | 
Cc1ccc2c(-c3ccc([N+](=O)[O-])cc3)nn(-c3ccc(C(=O)O)cc3)c2c1 [4j] |  | 490-700 nm | 565 nm | 340-420 nm | 370 nm | 358 nm | 24967 M⁻¹ cm⁻¹ |  |  |  |  |  |  |  |  | 
O=C(O)c1ccc(-c2nn(-c3ccc(C(=O)O)cc3)c3ccc([N+](=O)[O-])cc23)cc1 [4k, 4-[3-(4-carboxy-phenyl)-5-nitro-1H-indazol-1-yl]-benzoic Acid] |  | 450-620 nm | 524 nm | 320-360 nm | 331 nm | 328 nm | 22622 M⁻¹ cm⁻¹ |  |  |  |  |  |  |  |  | 
NC(=O)c1ccc(-c2nn(-c3ccc(C(=O)O)cc3)c3ccc([N+](=O)[O-])cc23)cc1 [4l, 4-[3-(4-carbamoyl-phenyl)-5-nitro-1H-indazol-1-yl]-benzoic Acid] |  | 450-620 nm | 527 nm | 310-360 nm | 331 nm | 326 nm | 17252 M⁻¹ cm⁻¹ |  |  |  |  |  |  |  |  | 
